Results published in PMC7435819, “Towards the Inhibition of Protein–Protein Interactions (PPIs) in STAT3: Insights into a New Class of Benzothiadiazole Derivatives” (Molecules, 2020).
Like-named read-outs stand apart in the source and are kept apart here. Values belong to the molecule of their own block, whether it stands above or below them. Where no end group is shown, it is not given here. [ ]: non-standard residue; d: D form. pY = N[C@@H](Cc1ccc(OP(=O)(O)O)cc1)C(=O)O

Columns and labels:
[1] = target: T1, STAT3 (Homo sapiens, UniProt P40763); test: AlphaScreen-based competitive binding assay, STAT3 SH2 domain vs FITC-GpYLPQTV; conditions: for IC50: STAT3 wild-type (WT), read-out: STAT3 inhibition: IC50
T1 construct: a truncated form of STAT3 (136-705) was constructed and chromatographically purified; made in house
From the text: (§1) AlphaScreen is an in vitro competitive binding test used to identify compounds that are able to inhibit the binding of proteins containing an SH2 domain to their corresponding phosphopeptides (5-carboxyfluorescein (FITC)-GpYLPQTV for STAT3 and FITC-GpYDKPHVL for STAT1) (Table 2).
(§2) AlphaScreen is a bead-based non-radioactive assay system for the detection of biomolecular interactions in a microtiter plate format. The binding of biological partners brings donor and acceptor beads into close proximity and, as a result, a fluorescent signal between 520 and 620 nm was produced. The AlphaScreen-based assays were performed in a final reaction volume of 25 μL of the assay buffer containing 10 mM HEPES–NaOH (pH 7.4), 50 mM NaCl, 1 mM EDTA (pH 8.0), 0.1% NP-40, and 10 ng/μL bovine serum albumin (BSA) in a 96-well microtiter plate at 25 °C. The pTyr peptide probes used in this study were 5-carboxyfluorescein (FITC)-GpYLPQTV for STAT3 and (FITC)-GpYDKPHVL for STAT1. Plasmid construction and protein expression were performed as previously described; the experimental method is briefly summarized as follows. Considering that the expression of the full-length protein is troublesome, a truncated form of STAT3 (136-705) was constructed and chromatographically purified (AKTA FPLC system; GE Healthcare Bio-Sciences, Piscataway, NJ, USA). The soluble STAT3 fraction was loaded on a HisTrap™ column (GE Healthcare Bio-Sciences) and eluted with an imidazole gradient (50 mM Tris–HCl pH 7.4, 300 mM NaCl, 0.2 mM EDTA, 0.1% (w/v) NP-40, 5 mM β-mercaptoethanol, 10% (v/v) glycerol, and 10–300 mM imidazole). An SDS-PAGE stained with Coomassie Brilliant Blue (CBB) was performed to check the purity of the protein (see Figure S71). Subsequently, the protein was dialyzed (10 mM HEPES-NaOH pH 7.4, 50 mM NaCl, 10 mM β-mercaptoethanol, 0.1 mM EGTA, 0.02% (w/v) NP-40, 0.2 mM phenylmethylsulphonyl fluoride (PMSF), and 10% (v/v) glycerol).
Firstly, 75 nM of each SH2-containing protein were incubated with the test compound (at the following concentrations: 1, 3, 10, and 30 µM) for 15 min. Each protein sample was then incubated for 90 min with 50 nM of its corresponding FITC-pTyr peptide and simultaneously mixed with streptavidin-coated donor beads and anti-FITC acceptor beads before detection at 570 nm using EnVison Xcite (PerkinElmer, Waltham, MA, USA).

[2] = target: T2, STAT1 (Homo sapiens, UniProt P42224); test: AlphaScreen-based competitive binding assay, STAT1 vs FITC-GpYDKPHVL; conditions: read-out: STAT1 inhibition: IC50
T2 sequence (P42224 1-750): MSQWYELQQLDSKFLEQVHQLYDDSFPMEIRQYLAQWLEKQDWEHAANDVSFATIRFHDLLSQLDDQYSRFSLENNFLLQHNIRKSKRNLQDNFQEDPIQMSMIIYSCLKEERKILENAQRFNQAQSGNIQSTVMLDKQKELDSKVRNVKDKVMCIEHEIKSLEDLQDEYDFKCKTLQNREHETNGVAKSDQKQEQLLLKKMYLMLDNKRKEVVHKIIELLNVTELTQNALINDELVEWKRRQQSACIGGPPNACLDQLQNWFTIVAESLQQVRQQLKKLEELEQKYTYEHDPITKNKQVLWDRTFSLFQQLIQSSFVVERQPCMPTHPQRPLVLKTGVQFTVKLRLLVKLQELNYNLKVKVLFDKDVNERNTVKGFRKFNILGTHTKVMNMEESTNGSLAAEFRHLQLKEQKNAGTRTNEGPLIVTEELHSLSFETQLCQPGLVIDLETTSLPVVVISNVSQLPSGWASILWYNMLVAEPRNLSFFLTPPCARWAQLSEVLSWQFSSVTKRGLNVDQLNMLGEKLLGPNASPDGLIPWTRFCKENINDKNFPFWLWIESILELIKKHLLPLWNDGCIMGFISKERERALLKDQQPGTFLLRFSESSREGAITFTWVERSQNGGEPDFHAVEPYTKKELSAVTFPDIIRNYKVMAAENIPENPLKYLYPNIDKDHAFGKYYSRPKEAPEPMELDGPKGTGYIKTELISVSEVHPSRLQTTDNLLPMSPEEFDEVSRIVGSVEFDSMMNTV
From the text: as §1
as §2, with “The soluble STAT3 fraction was loaded on a HisTrap™ column (GE Healthcare Bio-Sciences) and eluted with an imidazole gradient (50 mM Tris–HCl pH 7.4, 300 mM NaCl, 0.2 mM EDTA, 0.1% (w/v) NP-40, 5 mM β-mercaptoethanol, 10% (v/v) glycerol, and 10–300 mM imidazole). An SDS-PAGE stained with Coomassie Brilliant Blue (CBB) was performed to check the purity of the protein (see Figure S71). Subsequently, the protein was dialyzed (10 mM HEPES-NaOH pH 7.4, 50 mM NaCl, 10 mM β-mercaptoethanol, 0.1 mM EGTA, 0.02% (w/v) NP-40, 0.2 mM phenylmethylsulphonyl fluoride (PMSF), and 10% (v/v) glycerol).” left out

[3] = target: T3, truncated form of STAT3 (136-705) (UniProt P40763 136-705); test: AlphaScreen or HTRF; same procedure with STAT3 single-cysteine mutants; compound 1 (0.3-30 µM) premixed with L-Cys in PBS and AlphaScreen buffer, mixed with the STAT3 mutant solution before adding the FITC-peptide; conditions: both partners purified
T3 construct: STAT3, residues 136-705; also called STAT3 wild-type; source: plasmid construction and protein expression as previously described [52]; chromatographically purified (HisTrap column, imidazole gradient), dialyzed

[4] = 30 µM, n.a.: not active, read-out: STAT3 % Inhibition (30 µM)
[5] = Table 1, AlphaScreen-based assay at 30 µM, STAT3-SH2 domain, read-out: % Inhibition

T1 sequence (P40763 136-705): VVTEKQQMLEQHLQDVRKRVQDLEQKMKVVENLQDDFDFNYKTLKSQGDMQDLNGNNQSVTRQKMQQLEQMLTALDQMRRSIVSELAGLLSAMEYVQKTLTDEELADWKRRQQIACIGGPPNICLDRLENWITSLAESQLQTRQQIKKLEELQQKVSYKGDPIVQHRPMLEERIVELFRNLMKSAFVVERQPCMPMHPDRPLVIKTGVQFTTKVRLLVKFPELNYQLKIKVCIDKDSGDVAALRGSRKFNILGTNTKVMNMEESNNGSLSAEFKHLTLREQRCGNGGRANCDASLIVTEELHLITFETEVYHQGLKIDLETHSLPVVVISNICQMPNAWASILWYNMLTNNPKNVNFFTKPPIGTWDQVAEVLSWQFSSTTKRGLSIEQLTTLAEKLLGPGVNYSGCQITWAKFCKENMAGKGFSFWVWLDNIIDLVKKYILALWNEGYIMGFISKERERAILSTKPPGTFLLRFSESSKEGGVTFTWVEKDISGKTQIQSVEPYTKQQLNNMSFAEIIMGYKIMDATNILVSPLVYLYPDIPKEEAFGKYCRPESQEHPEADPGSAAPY
T3 sequence (P40763 136-705): as above

Molecule: O=S1(=O)N(Cc2ccccc2)c2ccccc2N1Cc1ccccc1 [Compound 3, 1,3-Dibenzyl-2,1,3-benzothiadiazole-2,2-dioxide]
melting point: 134 °C

Molecule: O=C(CN1c2ccccc2NS1(=O)=O)NCCc1ccccc1 [Compound 4, 2-(2,2-Dioxo-3H-2,1,3-benzothiadiazol-1-yl)-N-(2-phenylethyl)acetamide]
inhibition at 30 µM [1, 4]: 17.3 ± 1.3% | IC50 [1]: > 30 µM | melting point: 172 °C

Molecule: Oc1nc2ccccc2[nH]1 [Compound 5, 2,3-Dihydro-1H-1,3-benzodiazol-2-one]
inhibition at 30 µM [1, 4]: 3.5 ± 5.6% | IC50 [1]: > 30 µM

Molecule: O=S1(=O)Cc2ccccc2C1 [Compound 6]
inhibition at 30 µM [1, 4]: 11.5 ± 0.8% | IC50 [1]: > 30 µM

Molecule: NC1=NS(=O)(=O)Nc2nonc21 [III]
inhibition at 30 µM [1, 5]: 85.4%

Molecule: CCN1C(Cl)=NS(=O)(=O)c2ccccc21 [II]
inhibition at 30 µM [1, 5]: 43.4%

Molecule: CN1C(Cl)=NS(=O)(=O)c2ccccc21 [I]
inhibition at 30 µM [1, 5]: 79%

B1: 5-carboxyfluorescein (FITC)-GpYLPQTV (peptide)
peptide: G[pY]LPQTV
modifications: not fully specified (N-terminus)
notes: also called pTyr peptide probe for STAT3; phosphotyrosine peptide
binding result [3]: binds

Second part, the molecule after the results:

inhibition at 30 µM [1, 4]: 16.4 ± 0.8% | IC50 [1]: > 30 µM
Molecule: O=S1(=O)Nc2ccccc2N1 [Compound 1a, 1H,3H-2,1,3-Benzothiadiazole-2,2-dioxide]

inhibition at 30 µM [1, 4]: 14.5 ± 0.6% | IC50 [1]: > 30 µM | melting point: 157 °C
Molecule: Cc1ccc2c(c1)NS(=O)(=O)N2 [Compound 1b, 5-Methyl-1H,3H-2,1,3-benzothiadiazole-2,2-dioxide]

inhibition at 30 µM [1, 4]: 8.2 ± 1.6% | IC50 [1]: > 30 µM | melting point: 143 °C
Molecule: O=S1(=O)Nc2ccc(C(F)(F)F)cc2N1 [Compound 1c, 5-(Trifluoromethyl)-1H,3H-2,1,3-benzothiadiazole-2,2-dioxide]

inhibition at 30 µM [1, 4]: 56.9 ± 3.6% | IC50 [1]: 25.1 µM | IC50 [2]: 15.9 µM
Molecule: O=[N+]([O-])c1ccc2c(c1)NS(=O)(=O)N2 [Compound 1d, 5-Nitro-1H,3H-2,1,3-benzothiadiazole-2,2-dioxide]

inhibition at 30 µM [1, 4]: 28.2 ± 1.4% | IC50 [1]: > 30 µM
Molecule: O=S1(=O)Nc2ccc(Cl)cc2N1 [Compound 1e, 5-Chloro-1H,3H-2,1,3-benzothiadiazole-2,2-dioxide]

inhibition at 30 µM [1, 4]: 18.9 ± 2.3% | IC50 [1]: > 30 µM
Molecule: CC(=O)Nc1ccc2c(c1)NS(=O)(=O)N2 [Compound 1f, N-(2,2-Dioxo-1H,3H-2,1,3-benzothiadiazol-5-yl)acetamide]

inhibition at 30 µM [1, 4]: 11 ± 2.1% | IC50 [1]: > 30 µM
Molecule: CC(C)CCNC(=O)CCc1ccc2c(c1)NS(=O)(=O)N2 [Compound 1g, 3-(2,2-Dioxo-1H,3H-2,1,3-benzothiadiazol-5-yl)-N-(3-methylbutyl)propanamide]

melting point: 192 to 197 °C
Molecule: O=C(CCc1ccc2c(c1)NS(=O)(=O)N2)Nc1ccccc1 [Compound 1h, 3-(2,2-Dioxo-1H,3H-2,1,3-benzothiadiazol-5-yl)-N-phenylpropanamide]

inhibition at 30 µM [1, 4]: 6.1 ± 0.9% | IC50 [1]: > 30 µM | melting point: 180 to 185 °C
Molecule: O=S1(=O)Nc2ccc(-c3ccccc3)cc2N1 [Compound 1i, 5-Phenyl-1H,3H-2,1,3-benzothiadiazole-2,2-dioxide]

inhibition at 30 µM [1, 4]: 25.6 ± 1.2% | IC50 [1]: > 30 µM | melting point: 185 °C
Molecule: Cc1cc2c(cc1Br)NS(=O)(=O)N2 [Compound 2a, 5-Bromo-6-methyl-1H,3H-2,1,3-benzothiadiazole-2,2-dioxide]

inhibition at 30 µM [1, 4]: 8.9 ± 1.1% | IC50 [1]: > 30 µM
Molecule: Cc1ccc2c(c1)N(C)S(=O)(=O)N2C [Compound 2b, 1,3,5-Trimethyl-2,1,3-benzothiadiazole-2,2-dioxide]
